In data set [1] the test system is 5-Lipoxygenase. In words: 5-Lipoxygenase inhibitory activity, colorimetric method (ferric xylenol orange, linoleic acid). The format is biochemical. Here is the method:
5-Lipoxygenase activity: The corosolic acid analogs were screened for their 5-Lipoxygenase inhibitory potential using colorimetric method. The assay mixture contained 50 mM phosphate buffer pH 6.3, 5-Lipoxygenase, various concentrations of test substances in dimethyl sulphoxide and linoleic acid in a total volume of 0.5 mL, after 5 min incubation of above reaction mixture, 0.5 mL ferric xylenol orange reagent was added and OD was measured after two minutes at 585 nm using spectrophotometer. Controls were run along with test in a similar manner except using vehicle instead of test substance solution. Percent inhibition was calculated by comparing absorbance of test solution with that of control.
The corosolic acid analogs of this invention are found to show good 5-lipoxygenase activity (Table 2; 5-lipoxygenase activity is expressed in % of inhibition at 100 μM and 250 μM; higher the % inhibitory values, higher is the activity).

Data set [2] relates to Brine shrimp (Artemia salina) nauplii. In words: in vivo. The settings on record: 24 h at 37° C., 10 nauplii per vial. Here is the method:
Brine shrimp lethality: Brine shrimp (Artemia salina) nauplii were hatched using brine shrimp eggs in a conical shaped vessel (1 L), filled with sterile artificial sea water (prepared using sea salt 38 g/L and adjusted to pH 8.5 using 1 N NaOH) under constant aeration for 48 h. After hatching, 10 nauplii were drawn through a pepette and placed in each vial containing 4.5 mL brine solution and added various concentrations of drug solutions and volume was made upto 5 mL using brine solution and maintained at 37° C. for 24 h under the light of incandescent lamps and surviving larvae were counted. Each experiment was conducted along with control (vehicle treated), at various concentrations of the test substance in each set that contains 6 tubes and the average results are reported. The percentage lethality was determined by comparing the mean mortal larvae of test and control tubes. LC50 values were obtained from the plot of concentration (μg) vs. percentage lethality. Podophyllotoxin was used as a positive control.
The corosolic acid analogs of this invention are found to show significant brine shrimp lethality (Table 3; brine shrimp lethality is expressed in LC50 at μM concentration; lower the LC50 value, higher is the activity).

Data set [3] deals with Albino wistar rats. In words: Hypoglycemic activity: inhibition of sucrose-induced raise in serum glucose levels (SGL). The format is in vivo. Further details: Inhibitory rate (serum glucose level inhibitory rate): unit not given here. To be noted: oral dose 1 mg/Kg; for SGL (mean ± SE): 20 mL/kg of 20% sucrose orally after 30 minutes, blood drawn one hour after treatment, groups of six rats; for Inhibitory rate (serum glucose level inhibitory rate): mean increase in serum glucose levels of treated vs control groups. Here is the method: Hypoglycemic activity: Hypoglycemic activity was tested by the inhibition of sucrose-induced raise in serum glucose levels (SGL), by the test substances in Albino wistar rats. The procedure involves fasting the rats for overnight at ad libitum water, numbered weighed and randomly divided into groups of six animals each. Prior to treatment blood samples were drawn from sinus orbital plexus of all animals using heparin coated glass capillaries under mild ether anesthesia. The blood samples were tested for serum glucose levels using enzymatic GOD/POD method. […] SGL=(test OD/Standard OD)×100 and the results were expressed in mg/dL. All the groups were treated orally with corresponding test substances, standard, vehicle (5% gum acacia). After 30 minutes, all animals were given 20 mL/kg of 20% sucrose solution orally using gastric tube. One hour after treatment, blood samples were drawn again under mild ether anesthesia and tested for serum glucose levels in a same procedure as described above for initial serum glucose estimation. The data was subjected to statistical treatment using t-test and inhibitory rate was calculated by comparing mean increase in serum glucose levels of control and treated groups. The corosolic acid analogs of this invention are found to show better hypoglycemic activity (Table 1; hypoglycemic activity is expressed in serum glucose level inhibitory rate values; higher the inhibitory rate value, higher is the activity) than the corosolic acid.

Bounds are passed on as bounds.

With `COC(=O)C12CCC(C)C(C)C1C1=CC(O)C3C4(C)CC(O)C(O)C(C)(C)C4CCC3(C)C1(C)CC2` (centres unmarked) [Compound 22, Methyl 11-hydroxycorosolate], the “% inhibition of 5-Lox activity” value in data set [1] (100 μM) is reported as 24.56%; in data set [1] (250 μM), 49.40%. In data set [2], this molecule yielded an LC50 of 19.9 µM.
On to `CC1CCC2(C(=O)NCCN)CCC3(C)C(=CCC4C5(C)CC(O)C(O)C(C)(C)C5CCC43C)C2C1C` (centres unmarked) [Compound 10, N-(2-Aminoethyl)corosolamide], for which, in data set [3], the “SGL (mean ± SE)” value came out at 113.57 ± 3.80 mg/dL and the “Inhibitory rate (serum glucose level inhibitory rate)” value (“Inhibitory rate” for short) came out at 30.28. In addition, the “% inhibition of 5-Lox activity” value in data set [1] (100 μM) was 21.74%. For the same molecule, in data set [1] (250 μM), the “% inhibition of 5-Lox activity” value stood at 40.87%. In addition, the LC50 in data set [2] amounted to 97.2 µM.
For `C[C@H]1[C@H](C)CC[C@]2(C(=O)Nc3ccccc3)CC[C@]3(C)C(=CC[C@@H]4[C@@]5(C)C[C@@H](O)[C@H](O)C(C)(C)[C@@H]5CC[C@]43C)[C@H]12` [Compound 9, N-Phenylcorosolamide], in that order: 117.97 ± 0.37 mg/dL, 27.58, 8.16%, 21.77% and more than 100 µM.
Methyl diacetylcorosolate [Compound 14]: the “% inhibition of 5-Lox activity” value in data set [1] (250 μM) is reported as 1.9%. The same molecule returned an LC50 in data set [2] of 42.1 µM.
On to `CC(=O)O[C@@H]1C[C@]2(C)[C@H]3CC=C4[C@@H]5[C@@H](C)[C@H](C)CC[C@]5(C(=O)O)CC[C@@]4(C)[C@]3(C)CC[C@H]2C(C)(C)[C@H]1OC(C)=O` [Compound 2, 2,3-Di-O-acetylcorosolic acid], for which the “% inhibition of 5-Lox activity” value in data set [1] (100 μM) was 20.08%; in data set [1] (250 μM), 44.54%. The LC50 in data set [2] stood at 1.8 µM.
As to “Methyl diacetyl-11-ketocorosolate [Compound 16]”, in data set [1] (250 μM), the “% inhibition of 5-Lox activity” value stood at 3.82%. Further, in data set [2], the LC50 was 82.3 µM.
Take `COC(=O)[C@]12CC[C@@H](C)[C@H](C)[C@H]1C1=CC(=O)[C@@H]3[C@@]4(C)C[C@@H](O)[C@H](O)C(C)(C)[C@@H]4CC[C@@]3(C)[C@]1(C)CC2` [Compound 15, Methyl 11-ketocorosolate]: in data set [3], the “SGL (mean ± SE)” value is reported as 120.79 ± 4.85 mg/dL and the “Inhibitory rate” value was 17.4. For the same molecule, the “% inhibition of 5-Lox activity” value in data set [1] (250 μM) is listed as 25.09%. Also, the LC50 in data set [2] turned out to be 40.9 µM.
In the case of `COC(=O)C12CCC(C)C(C)C1C1=CCC3C4(C)CC(OC(=O)C=Cc5cc(OC)c(OC)c(OC)c5)C(O)C(C)(C)C4CCC3(C)C1(C)CC2` (centres unmarked) [Compound 6, Methyl 2-O-(3,4,5-trimethoxycinnamoyl)corosolate], in data set [3], the “SGL (mean ± SE)” value was 114.15 ± 6.62 mg/dL and the “Inhibitory rate” value is 21.94. Further, in data set [1] (250 μM), the “% inhibition of 5-Lox activity” value was found to be 13.47%. The molecule further showed an LC50 in data set [2] of more than 200 µM.
Turning to “3-O-acetyl-11-keto-β-boswellic acid [AKBA, reference compound]”, the “% inhibition of 5-Lox activity” value in data set [1] (100 μM) was 17.45%; in data set [1] (250 μM) it was 25.3%.
With `C[C@H]1[C@H](C)CC[C@]2(C(N)=O)CC[C@]3(C)C(=CC(O)[C@@H]4[C@@]5(C)C[C@@H](O)[C@H](O)C(C)(C)[C@@H]5CC[C@]43C)[C@H]12` (some centres unmarked) [Compound 21, 11-Hydroxycorosolamide], in data set [3], the “SGL (mean ± SE)” value is 121.57 ± 2.62 mg/dL and the “Inhibitory rate” value is on record as 25.37. The “% inhibition of 5-Lox activity” value in data set [1] (100 μM) is recorded as 25.57%. In data set [1] (250 μM), the “% inhibition of 5-Lox activity” value amounted to 50.83%. In data set [2], this molecule displayed an LC50 of more than 100 µM.
Turning to `C[C@H]1[C@H](C)CC[C@]2(C(=O)O)CC[C@]3(C)C(=CC(=O)[C@@H]4[C@@]5(C)C[C@H]6OS(=O)(=O)O[C@@H]6C(C)(C)[C@@H]5CC[C@]43C)[C@H]12` [Compound 19, 2α,3β-Dihydroxyurs-12-en-11-one-28-oic acid 2,3-cyclicsulphate], in data set [3], the “SGL (mean ± SE)” value is on record as 129.16 ± 4.66 mg/dL and the “Inhibitory rate” value was 11.67. The “% inhibition of 5-Lox activity” value in data set [1] (250 μM) came out at 11.81%. The LC50 in data set [2] is more than 100 µM.
As to `CC(N)C(=O)OC1CC2(C)C(CCC3(C)C2CC=C2C4C(C)C(C)CCC4(C(=O)O)CCC23C)C(C)(C)C1O.Cl` (centres unmarked) [Compound 5, 2-O-Alanylcorosolic acid hydrochloride], in data set [3], the “SGL (mean ± SE)” value is 113.49 ± 4.11 mg/dL and the “Inhibitory rate” value is 22.39. Moreover, the “% inhibition of 5-Lox activity” value in data set [1] (100 μM) was 29.14%. For the same molecule, in data set [1] (250 μM), the “% inhibition of 5-Lox activity” value came out at 67.03%. This molecule also yielded an LC50 in data set [2] of 3.4 µM.
`CC(=O)OC1CC2(C)C(CCC3(C)C2C(=O)C=C2C4C(C)C(C)CCC4(C(=O)O)CCC23C)C(C)(C)C1OC(C)=O` (centres unmarked) [Compound 18, Diacetyl-11-ketocorosolic acid] yielded an LC50 in data set [2] of 87.7 µM.
“2-O-Acetylcorosolic acid and 3-O-acetylcorosolic acid [Compound 1]”: the “SGL (mean ± SE)” value in data set [3] came out at 109.54 ± 2.80 mg/dL. In addition, in data set [3], the “Inhibitory rate” value came to 32.75. In addition, the results for the “% inhibition of 5-Lox activity” value in data set [1] (100 μM) and in data set [1] (250 μM) were 15.47% and 24.05%, respectively. In addition, the LC50 in data set [2] was found to be 9.7 µM.
Regarding `COc1cc(C(=O)OC(=O)C23CCC(C)C(C)C2C2=CCC4C5(C)CC(O)C(O)C(C)(C)C5CCC4(C)C2(C)CC3)cc(OC)c1OC` (centres unmarked) [Compound 25, Corosolyl tri-O-methylgallate], in data set [3], the “SGL (mean ± SE)” value is recorded as 131.84 ± 7.77 mg/dL and the “Inhibitory rate” value is 9.84. Besides, in data set [1] (250 μM), the “% inhibition of 5-Lox activity” value is listed as 38.83%. In addition, in data set [2], the LC50 was more than 200 µM.
For the molecule `CC1CCC2(C(=O)O)CCC3(C)C(=CCC4C5(C)CC(OC(=O)CN)C(O)C(C)(C)C5CCC43C)C2C1C.Cl` (centres unmarked) [Compound 4, 2-O-Glycylcorosolic acid hydrochloride], in data set [3], the “SGL (mean ± SE)” value amounted to 119.23 ± 9.58 mg/dL and the “Inhibitory rate” value amounted to 26.8. In addition, the “% inhibition of 5-Lox activity” value in data set [1] (100 μM) is 17.04%. The “% inhibition of 5-Lox activity” value in data set [1] (250 μM) is reported as 27.83%. The molecule further had an LC50 in data set [2] of 3.9 µM.
In the case of `CC1CCC23CCC4(C)C(=CC(OC2=O)C2C5(C)CC(O)C(O)C(C)(C)C5CCC24C)C3C1C` (stereo not drawn) [Compound 26, 2α,3β-Dihydroxyurs-12-en-11,28-olide], in data set [3], the “SGL (mean ± SE)” value is 136.03 ± 4.43 mg/dL and the “Inhibitory rate” value is reported as 6.97. Further, the “% inhibition of 5-Lox activity” value in data set [1] (250 μM) is listed as 10.47%. This molecule yielded an LC50 in data set [2] of 87 µM.
Consider `CC(Cc1ccc(O)c(O)c1)C(C)Cc1ccc(O)c(O)c1` (centres unmarked) [NDGA, Nordihydroguaiaretic acid, reference compound], for which the “% inhibition of 5-Lox activity” value in data set [1] (100 μM) worked out at 70.4%; in data set [1] (250 μM), 91.55%.
With `CC1CCC2(C(=O)O)CCC3(C)C(=CCC4C5(C)CC(OC(=O)c6cccnc6)C(O)C(C)(C)C5CCC43C)C2C1C` (centres unmarked) [Compound 3, 2-O-Nicotinoylcorosolic acid], the “SGL (mean ± SE)” value in data set [3] amounted to 115.86 ± 3.77 mg/dL. Further, the “Inhibitory rate” value in data set [3] was determined as 13.9. For the same molecule, the entries for the “% inhibition of 5-Lox activity” value in data set [1] (100 μM) and in data set [1] (250 μM) were 28.54% and 53.19%, respectively. The molecule further showed an LC50 in data set [2] of 86.6 µM.
`CC1CCC2(C(=O)O)CCC3(C)C(=CCC4C5(C)CC6OS(=O)(=O)OC6C(C)(C)C5CCC43C)C2C1C` (stereo not drawn) [Compound 7, 2α,3β-Dihydroxyurs-12-en-28-oic acid 2,3-cyclicsulphate]: the “% inhibition of 5-Lox activity” value in data set [1] (250 μM) was 16.90%. In addition, the LC50 in data set [2] was 15 µM.
For the molecule `C[C@H]1[C@H](C)CC[C@]2(C(=O)O)CC[C@]3(C)C(=CC(=O)[C@@H]4[C@@]5(C)C[C@@H](O)[C@H](O)C(C)(C)[C@@H]5CC[C@]43C)[C@H]12` [Compound 17, 11-Ketocorosolic acid], in data set [3], the “SGL (mean ± SE)” value was 120.90 ± 9.66 mg/dL and the “Inhibitory rate” value is recorded as 25.78.
